Results taken from patent publication US6022879A, “Bathocuproine treatment of neurologic disease” (priority 1998, dated 2000).
One block for each compound: values may come before it.

What was measured:
[1] = tested on: G93A transgenic mice (overexpress human G93A ALS SOD mutant); assay: Bathocuproine in ALS SOD transgenic mice: onset and progression of paralysis; format: in vivo, mouse; conditions: intraperitoneal in soybean oil, daily 0.51 mg/100 g body weight, from 190 day old G93A mice
Description: Neither the overall efficiency nor the kinetics of Cu+1 removal was altered by sulfonic acid substituents on the ring(s) of the parent bathocuproine compound. Thus, the sulfonic acid groups serve mainly to increase water solubility and are not fundamental to copper binding activity. The unsubstituted parent compound, bathocuproine, is very lipid soluble and much more likely to cross the blood-brain barrier. In G93A transgenic mice, bathocuproine was dissolved in soybean oil and injected intraperitoneally at a daily dose of 0.51 mg/100 g body weight. Assuming uniform tissue distribution and fluid fraction equal to 0.7 of the mouse's body weight, this dose should give a cellular concentration of 20 µM or roughly a 4-fold molar excess over SOD protein concentration. […] After onset, paralysis progresses rapidly up the trunk and is ultimately fatal within about 14 days. Bathocuproine injections is initiated in 190 day old mice and the mice are observed for onset and progression of paralysis relative to untreated littermates. […] A group of non-transgenic mice are also injected to control for potential toxicities from bathocuproine itself.

[2] = target: T1, human Cu,Zn superoxide dismutase (SOD), FALS mutant A4V (Homo sapiens, UniProt P00441, A5V); assay: Reduction of enzyme-bound copper of SOD by a reductant, monitored spectrally at 680 nm; format: biochemical; conditions: Kpi pH 7.4, 37 degrees C
T1 construct: made in house; host or cells: E. coli BL21(DE3) plysS, pET-3d
T1 sequence (P00441 whole entry A5V): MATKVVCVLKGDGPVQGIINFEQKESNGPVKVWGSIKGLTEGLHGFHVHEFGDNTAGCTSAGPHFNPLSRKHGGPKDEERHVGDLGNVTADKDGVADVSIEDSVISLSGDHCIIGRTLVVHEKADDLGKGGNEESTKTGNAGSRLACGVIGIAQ
Description: (§1) SODs were present at a subunit concentration of 0.43 mM in 0.5 ml of 0.1 mM Kpi, pH 7.4 at 37 degrees C. Ascorbate (0.5 mM) was added at time zero and reduction was monitored spectrally at 680 nm for 1 hr.
(§2) SODs were present at a subunit concentration of 0.43 mM in 0.5 ml of 0.1 mM Kpi, pH 7.4 at 37 degrees C. H2 O2 (0.4 mM) was added at time zero and reduction was monitored spectrally at 680 nm for 5 minutes.
(§3) For more than two years the notion that FALS SODs could act as peroxidases and generate hydroxyl radical has been a subject of debate. However, H2 O2 can rapidly reduce Cu,Zn SOD and generate superoxide as a byproduct. (It is the addition of a second molecule of H2 O2 to give --OH that is extremely slow and of questionable significance). […] For example, it is possible to assess superoxide production from reduced SOD using the tetranitromethane (TNM) capture assay described by Hodgson and Fridovich (7).

[3] = target: T2, human Cu,Zn superoxide dismutase (SOD), FALS mutant D90A (Homo sapiens, UniProt P00441, D91A); assay: as above; format: biochemical; conditions: Kpi pH 7.4, 37 degrees C
T2 construct: made in house; host or cells: E. coli BL21(DE3) plysS, pET-3d
T2 sequence (P00441 whole entry D91A): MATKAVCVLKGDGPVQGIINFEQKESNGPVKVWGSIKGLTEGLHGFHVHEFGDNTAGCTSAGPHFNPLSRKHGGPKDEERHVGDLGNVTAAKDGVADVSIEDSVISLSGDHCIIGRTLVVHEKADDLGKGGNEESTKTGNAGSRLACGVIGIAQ
Description: as §1, §2, §3

[4] = target: T3, human Cu,Zn superoxide dismutase (SOD), FALS mutant G93A (Homo sapiens, UniProt P00441, G94A); assay: as above; format: biochemical; conditions: Kpi pH 7.4, 37 degrees C
T3 construct: made in house; host or cells: E. coli BL21(DE3) plysS, pET-3d
T3 sequence (P00441 whole entry G94A): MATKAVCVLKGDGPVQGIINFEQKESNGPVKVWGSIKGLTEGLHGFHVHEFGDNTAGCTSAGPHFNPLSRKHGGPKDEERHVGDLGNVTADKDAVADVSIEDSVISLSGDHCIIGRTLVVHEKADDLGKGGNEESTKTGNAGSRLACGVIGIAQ
Description: as §1, §2, §3

[5] = target: T4, human Cu,Zn superoxide dismutase (SOD), wild type (Homo sapiens, UniProt P00441); assay: as above; format: biochemical; conditions: Kpi pH 7.4, 37 degrees C
T4 construct: made in house; host or cells: E. coli
T4 sequence (P00441 whole entry): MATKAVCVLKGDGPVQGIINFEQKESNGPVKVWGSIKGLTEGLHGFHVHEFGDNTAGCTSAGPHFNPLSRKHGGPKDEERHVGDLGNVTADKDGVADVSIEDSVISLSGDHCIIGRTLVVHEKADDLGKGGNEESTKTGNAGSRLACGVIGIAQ
Description: as §1, §2, §3

[6] = target: T5, human Cu,Zn superoxide dismutase (SOD), site-directed mutant D124N (Asp124 to Asn, model zinc-deficient SOD) (Homo sapiens, UniProt P00441, D125N); assay: Reduction of enzyme-bound copper of SOD by a reductant, monitored spectrally at 680 nm (stopped-flow for ascorbate); format: biochemical
T5 construct: made in house; host or cells: E. coli
T5 sequence (P00441 whole entry D125N): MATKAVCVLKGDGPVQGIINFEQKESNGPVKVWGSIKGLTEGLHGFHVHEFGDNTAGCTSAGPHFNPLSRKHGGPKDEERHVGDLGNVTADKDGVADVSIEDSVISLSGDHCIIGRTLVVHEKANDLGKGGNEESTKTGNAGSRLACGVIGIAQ
Description: To circumvent this problem, a site-directed human SOD mutant was prepared wherein aspartate124 was changed to asparagine (D124N).
as §1, §2, §3

[7] = 0.4 mM H2O2, SOD subunit 0.43 mM, 5 minutes
[8] = 0.5 mM ascorbate, SOD subunit 0.43 mM, 1 hr

Compound: Cc1cc(-c2ccccc2)c2ccc3c(-c4ccccc4)cc(C)nc3c2n1 [bathocuproine]
- onset and progression of paralysis relative to untreated littermates [1]: delay of onset or slowing of progression is shown

- t1/2 for reduction by H2 O2 [2, 7]: 21.2 s
- t1/2 for reduction by H2 O2 [3, 7]: 30.9 s
- t1/2 for reduction by H2 O2 [4, 7]: 24.2 s
- t1/2 for reduction by H2 O2 [5, 7]: 30.5 s
- t1/2 for reduction by H2 O2 ([6]; 0.4 mM H2O2, SOD subunit 0.43 mM, Kpi pH 7.4, 37 degrees C, 680 nm, 5 minutes): 26.7 s
Compound: OO [H2 O2, hydrogen peroxide]

- t1/2 for reduction of SOD copper by ascorbate [2, 8]: 1550 s
- t1/2 for reduction of ascorbate [3, 8]: 1770 s
- t1/2 for reduction of ascorbate [4, 8]: 1240 s
- t1/2 for reduction by ascorbate ([5]; 0.5 mM ascorbate, SOD subunit 0.43 mM): 1700 s
- rate of ascorbate-mediated reduction relative to wild-type SOD ([6]; 0.5 mM ascorbate, D124N versus wild-type): ~200 fold
- t1/2 for reduction of SOD copper by ascorbate ([6]; 0.5 mM ascorbate, SOD subunit 0.43 mM, Kpi pH 7.4, 37 degrees C, stopped-flow spectroscopy): 8.9 s
Compound: O=C1O[C@H]([C@@H](O)CO)C(O)=C1O [ascorbate, ascorbic acid]
